Source: US8771691B2, “Methods for the treatment and the prognostic assessment of malignant pleural mesothelioma” (Inserm (Institut National de la Sante et de la Recherche …, priority 2008, dated 2014)

Tests used:
[1] = patients with MPM, randomized study, two arms; cited from earlier work
[2] = system: MSTO-211H cells; assay: Wound healing assay (cell migration); format: cell-based, human; details: 10^-6 M; at 24 and 30 hours; 0.5% FCS; controls 27% (untreated), 30% (DMSO)
Experimental: (§1) The human mesothelioma cell line, MSTO-211H, was selected because of its intense proliferative activity and its aggressive profile (ATCC CRL-2081, 211H). The MSTO-211H cells were grown in RPMI-1640 medium (Invitrogen, USA) supplemented with 10% fetal calf serum (PAATM) and 2 mM glutamine (Gibco®). Cells were stored at 37° in 5% CO2 atmosphere.
In order to evaluate the impact of the neurotensinergic system on cell migration, a wound healing assay was performed. 1.75×10^6 MSTO-211H cells were plated per well in 6 well dishes containing the medium in order to reach confluence. After 24 hours cells were serum-starved and scarification was performed in a Moscona buffer with a 20 μl pipette tip. Cells were maintained in culture with low serum medium (0.5% FCS) and treated with 10^−6 M SR48692. Control cells were exposed or not to the SR48692 solvent, DMSO. Pictures were taken at the beginning and 24 and 30 hours later with a photonic microscope. The “remaining gap” was calculated as percentage between wound size at 30 hours and initial wound size.

[3] = system: MSTO-211H cells; assay: Cellular growth of MSTO-211H cells; format: cell-based, human; details: 10^-6 M; cells counted after 24, 48 and 72 h
Experimental: as §1
Cellular growth was performed using 6 well-tissue-culture dishes. 15×10^4 MSTO-211H cells were seeded, after 24 h cells were washed twice with PBS, and complete media containing either 10^−6M SR 48692, a NTSR1 antagonist, or 10^−4M de DMSO was added to the cells. After 24, 48, and 72 h of growth, cells were trypsinized and counted with a cells coulter (Z1 Coulter® Particle Counter, Beckman Coulter™).

[4] = system: MSTO-211H cells; assay: Collagen invasion assay (type I collagen); format: cell-based, human; details: 5x10^-6 M SR48692 or 1:50 anti-NTS antibody; 48 hours; controls 13% (untreated), 11% (DMSO)
Experimental: as §1
Collagen invasion assay was performed by using tissue culture inserts composed of a 8 μm porous polycarbonate membrane, placed as inner chamber in 24 well-tissue-culture dishes. This membrane was coated with […] of 2 mg/ml type I collagen diluted in RPMI-1640 medium (Collagen type I, rat tail, Upstate). The bottom chamber was filled with 500 μL RPMI-1640 medium supplemented with 10% fetal calf serum and 2 mM glutamine. 10^3 MSTO-211H cells were seeded on the top of the inner chamber. Cells were treated with 5×10^−6 M of NTSR1 antagonist SR48692 or with 1:50 solution of anti-NTS rabbit antibody (NA1230, Tebu-Bio). Cells were placed for 48 hours at 37° C. in 5% CO2 atmosphere. After incubation, non invasive cells on the upper surface of the collagen matrix were wiped off with cotton swabs. Filter membranes were fixed with 5% glutaraldehyde and remaining cells stained with 0.5% toluidine blue. Quantitation of invasive cells was carried out at the 400× magnification by using the software CELINA.

| SMILES | median survival [1] [months] | residual gap (% of original gap) [2] [%] | effect on cell growth [3] | cells that invaded the type I collagen [4] [%] |
| --- | --- | --- | --- | --- |
| N.N.[Cl][Pt][Cl] [cisplatin] | 9.3 | – | – | – |
| COc1cccc(OC)c1-c1cc(C(=O)NC2(C(=O)O)C3CC4CC(C3)CC2C4)nn1-c1ccnc2cc(Cl)ccc12 (stereo not shown) [SR48692] | – | 48 | no effect | 4 |
